Experimental findings from ChEMBL document CHEMBL4732252, “Generating Selective Leads for Mer Kinase Inhibitors-Example of a Comprehensive Lead-Generation Strategy” (J Med Chem, 2021) are described below.

Broadly, the IC50 is the concentration that inhibits the measured activity by half. What is called logD is lipophilicity at a set pH, counting ionised and neutral species. High values mean a more lipophilic compound, low ones a more hydrophilic compound. One may read the solubility as the concentration that dissolves in the medium under given conditions.

Series [1] can be described thus: Intrinsic clearance in human liver microsomes. The settings on record: read-out: CLH. In kind it is ADME, Microsome. On the technique in general: Microsomes from liver hold many membrane-bound enzymes, among them those of drug oxidation.
The target of series [2] is T1, Receptor-type tyrosine-protein kinase FLT3 (Homo sapiens, UniProt P36888).
T1 sequence (P36888 whole entry): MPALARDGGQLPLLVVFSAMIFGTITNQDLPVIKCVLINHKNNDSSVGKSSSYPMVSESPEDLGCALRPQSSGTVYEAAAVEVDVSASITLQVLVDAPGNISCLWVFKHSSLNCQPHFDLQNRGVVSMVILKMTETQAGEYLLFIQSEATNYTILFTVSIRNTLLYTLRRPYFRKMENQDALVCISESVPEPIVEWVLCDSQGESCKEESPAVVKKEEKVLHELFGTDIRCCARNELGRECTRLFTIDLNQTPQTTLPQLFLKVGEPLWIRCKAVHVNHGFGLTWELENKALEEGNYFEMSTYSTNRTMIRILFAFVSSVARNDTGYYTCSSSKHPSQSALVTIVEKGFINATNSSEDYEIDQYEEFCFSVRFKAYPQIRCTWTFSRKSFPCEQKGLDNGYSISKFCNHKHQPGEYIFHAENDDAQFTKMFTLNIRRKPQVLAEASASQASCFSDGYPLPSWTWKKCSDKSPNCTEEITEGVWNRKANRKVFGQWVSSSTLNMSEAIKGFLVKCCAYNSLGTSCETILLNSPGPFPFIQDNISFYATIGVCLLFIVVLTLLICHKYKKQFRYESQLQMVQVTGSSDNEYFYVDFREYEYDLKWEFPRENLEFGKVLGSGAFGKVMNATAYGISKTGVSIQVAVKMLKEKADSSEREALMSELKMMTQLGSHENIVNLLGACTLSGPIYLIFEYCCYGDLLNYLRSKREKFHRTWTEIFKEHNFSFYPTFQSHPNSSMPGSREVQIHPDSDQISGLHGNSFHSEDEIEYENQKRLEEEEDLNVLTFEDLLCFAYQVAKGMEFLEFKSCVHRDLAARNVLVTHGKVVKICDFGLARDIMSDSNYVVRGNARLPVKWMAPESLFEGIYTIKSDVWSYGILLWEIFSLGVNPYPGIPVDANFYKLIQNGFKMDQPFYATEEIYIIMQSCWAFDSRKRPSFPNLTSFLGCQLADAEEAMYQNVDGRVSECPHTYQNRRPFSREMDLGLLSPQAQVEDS
The experiment in a line: Inhibition of His6/TEV fused-GST-tagged Flt3 (unknown origin) (H564 to S993 residues) using Axltide (CKKSRGDYMTMQJ-acid) peptide as substrate preincubated for 30 mins followed by substrate and ATP addition at Km concentration measured after 75 mins by RapidFire LC-MS analysis.

In series [3] the target is T2, Tyrosine-protein kinase receptor UFO (Homo sapiens, UniProt P30530).
T2 sequence (P30530 whole entry): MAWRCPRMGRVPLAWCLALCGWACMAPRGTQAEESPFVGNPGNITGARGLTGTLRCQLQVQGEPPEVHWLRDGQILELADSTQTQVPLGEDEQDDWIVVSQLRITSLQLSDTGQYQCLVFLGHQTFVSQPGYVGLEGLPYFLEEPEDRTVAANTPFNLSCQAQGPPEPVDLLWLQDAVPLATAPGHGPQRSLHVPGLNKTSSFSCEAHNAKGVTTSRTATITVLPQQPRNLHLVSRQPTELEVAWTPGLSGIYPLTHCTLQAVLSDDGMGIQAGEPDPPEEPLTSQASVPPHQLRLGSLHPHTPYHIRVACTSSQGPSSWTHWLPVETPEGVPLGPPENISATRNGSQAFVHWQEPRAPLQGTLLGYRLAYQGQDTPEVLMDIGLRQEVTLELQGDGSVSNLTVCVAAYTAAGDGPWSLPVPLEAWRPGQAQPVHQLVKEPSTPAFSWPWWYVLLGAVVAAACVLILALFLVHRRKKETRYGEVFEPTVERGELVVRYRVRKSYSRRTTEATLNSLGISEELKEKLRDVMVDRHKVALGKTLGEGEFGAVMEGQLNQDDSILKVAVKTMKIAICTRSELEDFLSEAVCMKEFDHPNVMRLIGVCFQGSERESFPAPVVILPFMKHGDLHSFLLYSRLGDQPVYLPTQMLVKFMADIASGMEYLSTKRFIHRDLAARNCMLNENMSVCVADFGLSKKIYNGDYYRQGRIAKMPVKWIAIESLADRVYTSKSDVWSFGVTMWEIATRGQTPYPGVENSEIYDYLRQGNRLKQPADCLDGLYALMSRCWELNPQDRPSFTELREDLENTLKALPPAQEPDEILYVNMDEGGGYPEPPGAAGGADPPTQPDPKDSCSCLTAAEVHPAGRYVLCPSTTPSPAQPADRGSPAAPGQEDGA
As to the kind of experiment: Inhibition of GST-tagged AXL (unknown origin) ([…] residues) using Axltide (CKKSRGDYMTMQJG-acid) peptide as substrate preincubated for 30 mins followed by substrate and ATP addition at Km concentration measured after 180 mins by RapidFire LC-MS analysis.

Series [4] can be described thus: Distribution coefficient, logD of compound at pH 7.4. The class given is physicochemical. The settings on record: octanol/water.
A short description of series [5]: Intrinsic clearance in rat hepatocytes assessed per 10^6 cells. In kind it is ADME, cell-based, Hepatocyte. The settings on record: read-out: CLH.
A short description of series [6]: Aqueous solubility of the compound. In kind it is physicochemical.
Series [7] concerns the target T3, Tyrosine-protein kinase Mer (Homo sapiens, UniProt Q12866).
T3 sequence (Q12866 whole entry): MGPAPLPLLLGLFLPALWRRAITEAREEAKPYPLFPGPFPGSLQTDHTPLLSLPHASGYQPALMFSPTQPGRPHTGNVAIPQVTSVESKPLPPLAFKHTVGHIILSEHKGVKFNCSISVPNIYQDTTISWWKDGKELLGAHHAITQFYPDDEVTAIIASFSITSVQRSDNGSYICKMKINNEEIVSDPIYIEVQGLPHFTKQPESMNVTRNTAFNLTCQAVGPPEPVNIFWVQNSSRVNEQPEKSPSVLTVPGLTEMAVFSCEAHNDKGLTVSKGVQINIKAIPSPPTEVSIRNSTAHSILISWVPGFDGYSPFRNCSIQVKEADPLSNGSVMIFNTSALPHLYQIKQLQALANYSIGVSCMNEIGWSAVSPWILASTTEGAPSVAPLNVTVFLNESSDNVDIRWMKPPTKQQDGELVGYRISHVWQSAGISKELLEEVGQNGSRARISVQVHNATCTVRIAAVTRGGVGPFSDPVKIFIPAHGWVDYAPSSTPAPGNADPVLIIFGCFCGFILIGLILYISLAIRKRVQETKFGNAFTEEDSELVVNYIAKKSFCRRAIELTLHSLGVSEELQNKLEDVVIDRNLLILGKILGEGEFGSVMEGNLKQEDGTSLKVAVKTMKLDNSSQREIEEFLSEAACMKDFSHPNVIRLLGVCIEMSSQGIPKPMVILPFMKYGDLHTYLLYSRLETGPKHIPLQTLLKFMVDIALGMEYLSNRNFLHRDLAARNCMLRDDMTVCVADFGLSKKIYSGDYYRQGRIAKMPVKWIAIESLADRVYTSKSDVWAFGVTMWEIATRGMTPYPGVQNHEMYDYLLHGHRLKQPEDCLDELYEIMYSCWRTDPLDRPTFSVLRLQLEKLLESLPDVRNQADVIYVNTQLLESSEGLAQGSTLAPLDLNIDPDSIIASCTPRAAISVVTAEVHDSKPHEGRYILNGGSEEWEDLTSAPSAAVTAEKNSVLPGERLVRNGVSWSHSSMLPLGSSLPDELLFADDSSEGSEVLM
As to the kind of experiment: Inhibition of 6His/thrombin cleavage site-fused Avi-tagged dephosphorylated MER (unknown origin) (R528 to M999 residues) using Axltide (CKKSRGDYMTMQJG-acid) peptide as substrate preincubated for 30 mins followed by substrate and ATP addition at Km concentration measured after 120 mins by RapidFire LC-MS analysis.

In series [8] the target is T1, Receptor-type tyrosine-protein kinase FLT3. The experiment in a line: Inhibition of His6/TEV fused-GST-tagged Flt3 (unknown origin) (H564 to S993 residues) using Axltide (CKKSRGDYMTMQJ-acid) peptide as substrate preincubated for 30 mins followed by substrate addition in presence of ATP and measured for 90 mins by ADP-Glo Reagent based method. (ADP-Glo turns the ADP formed in a reaction into a luminescent signal.)

Series [9] addresses T2, Tyrosine-protein kinase receptor UFO. The experiment in a line: Inhibition of GST-tagged AXL (unknown origin) ([…] residues) using Axltide (CKKSRGDYMTMQJG-acid) peptide as substrate preincubated for 30 mins followed by substrate and ATP addition at Km concentration measured after 40 mins by ADP-Glo Reagent based method.

In brackets after ≈: the same amount, converted by molar mass.

Regarding `CS(=O)(=O)c1cnc(Nc2ccc(O)cc2)nc1NCc1ccccc1`, the microsomal CLint in series [1] amounted to 5 µL/min/mg. In addition, the values for the IC50 in [2], in series [3] and in [7] were 1260 nM, 1580 nM and 398 nM, respectively. The molecule also returned a logD in [4] of 2.8. Moreover, the hepatocyte CLint in [5] amounted to 32 µL/min/1e6 cells. The molecule also displayed a solubility in series [6] of 27 µM (≈ 10 µg/mL).
Take `COc1cc2c(Nc3cnc(NC(=O)c4cccn4C)nc3)ncnc2cc1OCCCNC1CCCC1`: the microsomal CLint in [1] is under 3 µL/min/mg. Further, the IC50 in series [8] was 10000 nM; in series [9], 126 nM; in series [7] it was 100 nM. The molecule also displayed a logD in series [4] of 1.8. Moreover, the hepatocyte CLint in series [5] was under 1 µL/min/1e6 cells. Also, the solubility in series [6] turned out to be 1000 µM (≈ 517 µg/mL).
For the molecule `O=C(Nc1ccc(Oc2cc(NC(=O)C3CC3)ncn2)cc1)Nc1ccc(CN2CCn3ccnc3C2)c(C(F)(F)F)c1`, the microsomal CLint in series [1] is 16 µL/min/mg. For the same molecule, the IC50 in series [2] was 3.16 nM; in series [3], 398 nM; in series [7], 6.31 nM. The molecule further came in with a logD in series [4] of 4.5. For the same molecule, the hepatocyte CLint in series [5] came to 9 µL/min/1e6 cells. Moreover, the solubility in series [6] stood at 3 µM (≈ 1.78 µg/mL).
On to `CNc1nc(OC2CCCC2)nc2c1ncn2Cc1c(F)cccc1F`, for which the microsomal CLint in series [1] is 240 µL/min/mg. Further, the results for the IC50 in [8], in [9] and in [7] were 100000 nM, 794 nM and 126 nM, respectively. For the same molecule, the logD in series [4] was 4.3. Besides, the hepatocyte CLint in series [5] turned out to be 190 µL/min/1e6 cells. This molecule had a solubility in series [6] of 9 µM (≈ 3.23 µg/mL).
Turning to `COc1cc2c(Nc3cnc(OCCCC4CCCC4)nc3)ncnc2cc1OCCCN1CCCCC1`, in series [1], the microsomal CLint was 96 µL/min/mg. In addition, the IC50 was 20 nM in series [2], 10 nM in series [3] and 0.794 nM in [7]. Moreover, the logD in series [4] amounted to 4.5. Also, the hepatocyte CLint in [5] was 2 µL/min/1e6 cells. Further, the solubility in series [6] came out at 130 µM (≈ 67.7 µg/mL).
For `CNC(=O)c1cnc(Nc2ccc(OC)cc2C)nc1NC1CCCC1`, in series [1], the microsomal CLint is 37 µL/min/mg. The results for the IC50 in series [8], in series [9] and in series [7] were over 79400 nM, 31600 nM and 794 nM, respectively. The same molecule showed a logD in [4] of 4.2. The hepatocyte CLint in series [5] was 130 µL/min/1e6 cells. The amount in solution in [6] (solubility) came to 10 µM (≈ 3.55 µg/mL).
